Results published in article PMC3914206.

Assays:
Assay type in all cases: binding
Parameters in all cases: KINOMEscan: ABL1(F317L)-phosphorylated / KINOMEscan: ABL1(H396P)-nonphosphorylated / KINOMEscan: ABL1(H396P)-phosphorylated / KINOMEscan: ABL1(M351T)-phosphorylated / KINOMEscan: ABL1(T315I)-phosphorylated / KINOMEscan: ABL1-nonphosphorylated / KINOMEscan: ABL1-phosphorylated / KINOMEscan: ACVR2A / KINOMEscan: ACVR2B / KINOMEscan: ADCK3 / KINOMEscan: ADCK4 / KINOMEscan: AKT1 / KINOMEscan: AKT3 / KINOMEscan: ALK / KINOMEscan: ARK5 / KINOMEscan: AURKA / KINOMEscan: AURKC / KINOMEscan: BIKE / KINOMEscan: BMPR1A / KINOMEscan: BMPR1B / KINOMEscan: BMX / KINOMEscan: BRK / KINOMEscan: BRSK1 / KINOMEscan: BRSK2 / KINOMEscan: CAMK1 / KINOMEscan: CAMK1D / KINOMEscan: CAMK1G / KINOMEscan: CAMK2A / KINOMEscan: CAMK2B / KINOMEscan: AAK1 / KINOMEscan: CAMK2D / KINOMEscan: CAMK2G / KINOMEscan: ABL1(F317I)-nonphosphorylated / KINOMEscan: ABL1(F317I)-phosphorylated / KINOMEscan: ABL1(F317L)-nonphosphorylated: unit: % Ctrl
Conditions in all cases: Compound Concentration 10 µM
panel of 442 kinases [1] = target: T1, panel of 442 kinases (Homo sapiens, UniProt P29322)
T1 construct: purchased KINOMEscan
T1 sequence (P29322 28-1005): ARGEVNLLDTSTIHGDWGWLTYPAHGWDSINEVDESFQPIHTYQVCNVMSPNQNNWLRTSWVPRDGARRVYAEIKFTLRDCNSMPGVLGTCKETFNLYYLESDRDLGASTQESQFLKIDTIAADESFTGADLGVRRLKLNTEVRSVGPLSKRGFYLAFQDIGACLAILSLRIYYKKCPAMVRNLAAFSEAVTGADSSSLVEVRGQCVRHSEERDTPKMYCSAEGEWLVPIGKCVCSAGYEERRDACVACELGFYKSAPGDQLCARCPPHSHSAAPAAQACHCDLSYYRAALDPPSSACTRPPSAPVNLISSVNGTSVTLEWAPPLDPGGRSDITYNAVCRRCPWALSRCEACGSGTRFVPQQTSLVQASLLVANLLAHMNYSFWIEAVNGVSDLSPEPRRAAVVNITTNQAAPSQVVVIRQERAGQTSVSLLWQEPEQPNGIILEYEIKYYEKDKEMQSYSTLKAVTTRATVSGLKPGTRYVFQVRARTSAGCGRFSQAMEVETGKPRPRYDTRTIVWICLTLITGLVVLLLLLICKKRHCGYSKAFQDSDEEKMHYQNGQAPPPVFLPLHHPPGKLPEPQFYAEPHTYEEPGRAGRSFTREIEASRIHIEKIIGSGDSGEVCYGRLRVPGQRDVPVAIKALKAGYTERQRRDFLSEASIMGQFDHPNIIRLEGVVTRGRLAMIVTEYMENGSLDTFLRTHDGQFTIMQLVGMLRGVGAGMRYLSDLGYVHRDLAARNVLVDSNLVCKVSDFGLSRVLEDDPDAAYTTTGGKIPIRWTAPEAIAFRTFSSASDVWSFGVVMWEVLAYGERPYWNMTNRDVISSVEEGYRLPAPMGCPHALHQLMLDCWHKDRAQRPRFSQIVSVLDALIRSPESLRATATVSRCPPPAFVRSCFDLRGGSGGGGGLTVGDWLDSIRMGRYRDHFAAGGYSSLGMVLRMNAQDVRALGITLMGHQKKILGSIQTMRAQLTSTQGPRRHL
From the text: (§1) We assessed the selectivity of members of this scaffold using the KINOMEscan methodology across a near comprehensive panel of 442 kinases [[18,27]].

panel of 442 kinases [2] = target: T2, panel of 442 kinases (Homo sapiens, UniProt Q00535)
T2 construct: purchased KINOMEscan
From the text: as §1

panel of 442 kinases [3] = target: T3, panel of 442 kinases (Homo sapiens, UniProt Q96NX5)
T3 construct: purchased KINOMEscan
From the text: as §1

T2 sequence (Q00535 whole entry): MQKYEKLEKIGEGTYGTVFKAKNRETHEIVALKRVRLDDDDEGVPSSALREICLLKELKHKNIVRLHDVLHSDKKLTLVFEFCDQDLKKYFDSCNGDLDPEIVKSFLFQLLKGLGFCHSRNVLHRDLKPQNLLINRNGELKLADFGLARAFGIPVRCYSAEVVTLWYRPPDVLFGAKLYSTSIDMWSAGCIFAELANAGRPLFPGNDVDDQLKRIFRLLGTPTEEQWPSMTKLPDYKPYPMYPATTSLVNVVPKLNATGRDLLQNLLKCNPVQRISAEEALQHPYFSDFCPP
T3 sequence (Q96NX5 whole entry): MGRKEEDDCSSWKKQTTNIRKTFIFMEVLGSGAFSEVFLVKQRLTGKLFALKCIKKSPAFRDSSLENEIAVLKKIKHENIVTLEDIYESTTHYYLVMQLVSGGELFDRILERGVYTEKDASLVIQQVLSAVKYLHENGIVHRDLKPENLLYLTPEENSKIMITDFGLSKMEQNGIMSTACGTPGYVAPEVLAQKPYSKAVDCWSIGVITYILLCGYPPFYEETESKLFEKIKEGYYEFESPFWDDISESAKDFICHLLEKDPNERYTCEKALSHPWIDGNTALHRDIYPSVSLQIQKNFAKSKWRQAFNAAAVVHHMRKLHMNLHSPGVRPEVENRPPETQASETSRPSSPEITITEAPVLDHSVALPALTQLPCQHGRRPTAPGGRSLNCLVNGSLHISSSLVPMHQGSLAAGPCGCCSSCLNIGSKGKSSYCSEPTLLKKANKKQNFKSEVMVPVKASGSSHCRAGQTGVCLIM

Row | SMILES | KINOMEscan: EPHA8 (panel of 442 kinases [1]) | KINOMEscan: CDK5 (panel of 442 kinases [2]) | KINOMEscan: CAMK1G (panel of 442 kinases [3])
1 | CCOc1cc(C(=O)N2CCC(N3CCN(C)CC3)CC2)ccc1Nc1ncc2c(n1)N(C1CCCC1)c1ccccc1C(=O)N2C [Compound 26] | 100 | 100 | 95
2 | COc1cc(C(=O)N2CCC(N3CCN(C)CC3)CC2)ccc1Nc1ncc2c(n1)N(C1CCCC1)c1ccccc1C(=O)N2C [Compound 25, 11-cyclopentyl-2-((2-methoxy-4-(4-(4-methylpiperazin-1-yl)piperidine-1-carbonyl)phenyl)amino)-5-methyl-5H-benzo[e]pyrimido[5,4-b][1,4]diazepin-6(11H)-one] | 97 | 94 | 90
3 | COc1cc(C(=O)N2CCC(N3CCN(C)CC3)CC2)ccc1Nc1ncc2c(n1)N1CCc3cccc(c31)C(=O)N2C [Compound 24] | 72 | – | 56
4 | COc1cc(C(=O)N2CCC(N3CCN(C)CC3)CC2)ccc1Nc1ncc2c(n1)N(C)c1ccccc1C(=O)N2C [15 (LRRK2-IN-1)] | 80 | 81 | 74
